Experimental data: patent publication US9745266B2 (THE REGENTS OF THE UNIVERSITY OF COLORADO, A BODY CORPORATE, priority 2013, dated 2017)
Converted amounts (≈) assume the structure as drawn.

Columns and labels:
MRSA ATCC BAA-44 [1] = experiment: MIC, CLSI broth microdilution; assay type: cell-based, S. aureus; conditions: Staphylococcus aureus; MRSA ATCC BAA-44, compound alone; read-out: MIC
MRSA ATCC BAA-44 [2] = experiment: MIC in the presence of 20 μM Of1 / alkaloid; assay type: cell-based, S. aureus; conditions: MRSA ATCC BAA-44; for fold of potentiation: MIC / MIC (+20 μM Of1); for MIC (+Of1): in the presence of 20 μM Of1
Protocol: Indoline alkaloid compounds were then screened for the ability to potentiate the activity of methicillin against MRSA. A multi-drug resistant MRSA strain (ATCC: BAA-44) was selected for the initial screening. […] To each well, 20 μM of each individual indoline alkaloid was added and the plates were incubated at 37° C. for 16 hrs.
The MRSA strain ATCC BAA-44 and the methicillin-sensitive S. aureus (MSSA) strain ATCC 25923 were used to determine the MIC values of various antimicrobial compounds in the presence of 20 μM Of1. The experiment was conducted similarly to the CLSI MIC determination described previously; however, MHB was supplemented with 40 μM Of1 prior to set up and inoculation. The final concentration of Of1 after inoculation with BAA-44 was 20 μM.

[3] = Mammalian cytotoxicity, CellTiter-Glo viability assay; assay type: cell-based, human; conditions: human, HeLa cells
Protocol: To evaluate the cytotoxicity of Of1 in mammalian cells, a cell viability assay was carried out using CellTiter-Glo luminescent cell viability assay kit (Promega). Human cervixcal adenocarcinoma HeLa cells were seeded on white, cell-culture treated 96-well plates (Corning: 3917) with Dulbecco's modified Eagle's medium (DMEM) supplemented with 10% fetal calf serum (FCS), 1% penicillin/streptomycin, at the densities of 20,000 cells/well. The medium volume for each well was 100 μL. Cells were incubated at 37° C. in 5% CO2/95% air for 16 hours. The medium was removed from each well and replaced with 99 μL of warmed fresh medium. To each well, 1 μL of Of1 analog was added in DMSO to final concentrations of 0.5-32 μg/mL. Each series was performed in triplicate. After incubation at 37° C. for another 24 hours, the plates were equilibrated to room temperature for 30 minutes. 100 μL of CellTiter-Glo reagent (Promega) was added to each well and mixed for 2 minutes on an orbital shaker. The plate was incubated at room temperature for another 10 minutes to stabilize luminescent signal. The luminescence of each sample was recorded in an Envision Multilabel Plate Reader (Perkin Elmer).

**Q.** For `Cc1nnc(SCC2=C(C(=O)O)N3C(=O)[C@@H](NC(=O)Cn4cnnn4)[C@H]3SC2)s1` [cefazolin], which MIC (MRSA ATCC BAA-44 [1]) is on record?
**A.** 128 µg/mL (≈ 282 µM)

**Q.** What about the fold of potentiation (MRSA ATCC BAA-44 [2]) of the same compound?
**A.** 32

**Q.** And the “MIC (+Of1)” value (MRSA ATCC BAA-44 [2])?
**A.** 4 µg/mL

**Q.** Which results are given for `Cc1onc(-c2ccccc2)c1C(=O)N[C@@H]1C(=O)N2[C@@H]1SC(C)(C)[C@@H]2C(=O)O` [oxacillin]?
**A.** MIC (MRSA ATCC BAA-44 [1]): 64 µg/mL (≈ 159 µM); MIC (+Of1) (MRSA ATCC BAA-44 [2]): 0.5 µg/mL

**Q.** For `C=C1CCCC2Nc3c(F)cc(Br)cc3C12CCNS(=O)(=O)c1ccc(Br)cc1` (centres unmarked) [Cpd 13d, 4-Bromo-N-[2-(6-bromo-8-fluoro-4-methylidene-2,3,4,4a,9,9a-hexahydro-1H-carbazol-4a-yl)ethyl]benzene-1-sulfonamide], which GI50 at 24 h [3] is on record?
**A.** 22 µg/mL (≈ 40.4 µM)

**Q.** For `C=C1CCCC2Nc3c(F)cc(Br)cc3C12CCNS(=O)(=O)c1ccc(C#N)cc1` (centres unmarked) [Cpd 13h, N-[2-(6-bromo-8-fluoro-4-methylidene-2,3,4,4a,9,9a-hexahydro-1H-carbazol-4a-yl)ethyl]-4-cyanobenzene-1-sulfonamide], which GI50 at 24 h [3] is on record?
**A.** 17 µg/mL (≈ 34.7 µM)

**Q.** With `C[C@@H](O)[C@H]1C(=O)N2C(C(=O)O)=C(SCCN=CN)C[C@H]12` [imipenem] as the compound, how does the MIC (MRSA ATCC BAA-44 [1]) read?
**A.** 0.5 µg/mL (≈ 1.67 µM)

**Q.** And the fold of potentiation (MRSA ATCC BAA-44 [2])?
**A.** 8

**Q.** And the “MIC (+Of1)” value (MRSA ATCC BAA-44 [2])?
**A.** .0625 µg/mL

**Q.** For `C=C1CCCC2Nc3c(F)cc(Br)cc3C12CCNS(=O)(=O)c1ccc(Cl)cc1` (centres unmarked) [Cpd 6l, N-[2-(6-bromo-8-fluoro-4-methylidene-2,3,4,4a,9,9a-hexahydro-1H-carbazol-4a-yl)ethyl]-4-chlorobenzene-1-sulfonamide], which GI50 at 24 h [3] is on record?
**A.** 18.1 µg/mL (≈ 36.2 µM)

**Q.** Which GI50 at 24 h [3] does the source give for `C=C1CCCC2Nc3c(F)cc(Br)cc3C12CCNS(=O)(=O)c1ccc(Br)cc1C(F)(F)F` (centres unmarked) [Cpd 13l, 4-Bromo-N-[2-(6-bromo-8-fluoro-4-methylidene-2,3,4,4a,9,9a-hexahydro-1H-carbazol-4a-yl)ethyl]-2-(trifluoromethyl)benzene-1-sulfonamide] here?
**A.** 21 µg/mL (≈ 34.3 µM)

**Q.** With `C=C1CCCC2Nc3c(F)cc(Br)cc3C12CCNS(=O)(=O)c1ccc(C)cc1` (centres unmarked) [Cpd 13b, N-[2-(6-bromo-8-fluoro-4-methylidene-2,3,4,4a,9,9a-hexahydro-1H-carbazol-4a-yl)ethyl]-4-methylbenzene-1-sulfonamide] as the compound, how does the GI50 at 24 h [3] read?
**A.** 22 µg/mL (≈ 45.9 µM)

**Q.** Which GI50 at 24 h [3] does the source give for `C=C1CCCC2Nc3c(F)cc(Br)cc3C12CCNS(=O)(=O)c1ccc(Br)c(C)c1` (centres unmarked) [Cpd 13o, 4-bromo-N-[2-(6-bromo-8-fluoro-4-methylidene-2,3,4,4a,9,9a-hexahydro-1H-carbazol-4a-yl)ethyl]-3-methylbenzene-1-sulfonamide] here?
**A.** 12.5 µg/mL (≈ 22.4 µM)

**Q.** For `C=C1CCCC2Nc3c(F)cc(Br)cc3C12CCNS(=O)(=O)c1cn(C)cn1` (centres unmarked) [Cpd 13s, N-[2-(6-bromo-8-fluoro-4-methylidene-2,3,4,4a,9,9a-hexahydro-1H-carbazol-4a-yl)ethyl]-1-methyl-1H-imidazole-4-sulfonamide], which GI50 at 24 h [3] is on record?
**A.** 23 µg/mL (≈ 49 µM)

**Q.** Which GI50 at 24 h [3] does the source give for `C=C1CCCC2Nc3ccc(Br)cc3C12CCNS(=O)(=O)c1ccc(I)cc1` (centres unmarked) [Cpd 12h, N-[2-(6-bromo-4-methylidene-2,3,4,4a,9,9a-hexahydro-1H-carbazol-4a-yl)ethyl]-4-iodobenzene-1-sulfonamide] here?
**A.** 33 µg/mL (≈ 57.6 µM)

**Q.** With `C=C1CCCC2Nc3ccc(Cl)cc3C12CCNS(=O)(=O)c1ccc(Cl)cc1` (centres unmarked) [Cpd 6a, 4-Chloro-N-[2-(6-chloro-4-methylidene-2,3,4,4a,9,9a-hexahydro-1H-carbazol-4a-yl)ethyl]benzene-1-sulfonamide] as the compound, how does the GI50 at 24 h [3] read?
**A.** 35 µg/mL (≈ 80 µM)

**Q.** With `C=C1CCCC2Nc3c(F)cc(Br)cc3C12CCNS(=O)(=O)c1ccc(OC)cc1` (centres unmarked) [Cpd 13a, N-[2-(6-bromo-8-fluoro-4-methylidene-2,3,4,4a,9,9a-hexahydro-1H-carbazol-4a-yl)ethyl]-4-methoxybenzene-1-sulfonamide] as the compound, how does the GI50 at 24 h [3] read?
**A.** 49 µg/mL (≈ 98.9 µM)

**Q.** With `C=C1CCC[C@@H]2Nc3c(F)cc(Br)cc3[C@]12CCNS(=O)(=O)c1ccc(OC(F)F)c(Cl)c1` (relative stereo) as the compound, how does the GI50 at 24 h [3] read?
**A.** 15.4 µg/mL (≈ 27.2 µM)

**Q.** Which GI50 at 24 h [3] does the source give for `C=C1CCCC2Nc3c(F)cc(Br)cc3C12CCNS(=O)(=O)c1ccc(Cl)nc1` (centres unmarked) [Cpd 13r, N-[2-(6-bromo-8-fluoro-4-methylidene-2,3,4,4a,9,9a-hexahydro-1H-carbazol-4a-yl)ethyl]-6-chloropyridine-3-sulfonamide] here?
**A.** 16.7 µg/mL (≈ 33.3 µM)

**Q.** For `C=C1CCCC2Nc3c(F)cc(Br)cc3C12CCNS(=O)(=O)c1ccc(Br)c(C(F)(F)F)c1` (centres unmarked) [Cpd 13m, 4-Bromo-N-[2-(6-bromo-8-fluoro-4-methylidene-2,3,4,4a,9,9a-hexahydro-1H-carbazol-4a-yl)ethyl]-3-(trifluoromethyl)benzene-1-sulfonamide], which GI50 at 24 h [3] is on record?
**A.** 8.3 µg/mL (≈ 13.6 µM)

**Q.** For `C=C1CCCC2Nc3ccc(Br)cc3C12CCNS(=O)(=O)c1ccc(Cl)c(Cl)c1` (centres unmarked) [Cpd 12i, N-[2-(6-bromo-4-methylidene-2,3,4,4a,9,9a-hexahydro-1H-carbazol-4a-yl)ethyl]-3,4-dichlorobenzene-1-sulfonamide], which GI50 at 24 h [3] is on record?
**A.** 12.8 µg/mL (≈ 24.8 µM)

**Q.** Which GI50 at 24 h [3] does the source give for `C=C1CCCC2Nc3c(F)cc(Br)cc3C12CCNS(=O)(=O)c1cncc(Br)c1` (centres unmarked) [Cpd 13q, 5-bromo-N-[2-(6-bromo-8-fluoro-4-methylidene-2,3,4,4a,9,9a-hexahydro-1H-carbazol-4a-yl)ethyl]pyridine-3-sulfonamide] here?
**A.** 11.2 µg/mL (≈ 20.5 µM)

**Q.** For `C=C1CCCC2Nc3c(F)cc(Br)cc3C12CCNS(=O)(=O)c1cc2ccccc2o1` (centres unmarked) [Cpd 13t, N-[2-(6-bromo-8-fluoro-4-methylidene-2,3,4,4a,9,9a-hexahydro-1H-carbazol-4a-yl)ethyl]-1-benzofuran-2-sulfonamide], which GI50 at 24 h [3] is on record?
**A.** 12.3 µg/mL (≈ 24.3 µM)

**Q.** Which GI50 at 24 h [3] does the source give for `C=C1CCCC2Nc3c(F)cc(Br)cc3C12CCNS(=O)(=O)c1ccc(Br)c(Br)c1` (centres unmarked) [Cpd 13j, 3,4-Dibromo-N-[2-(6-bromo-8-fluoro-4-methylidene-2,3,4,4a,9,9a-hexahydro-1H-carbazol-4a-yl)ethyl]benzene-1-sulfonamide] here?
**A.** 20 µg/mL (≈ 32.1 µM)

**Q.** With `C=C1CCCC2Nc3c(F)cc(Br)cc3C12CCNS(=O)(=O)c1ccc(Cl)c(Cl)c1` (centres unmarked) [Cpd 13f, N-[2-(6-bromo-8-fluoro-4-methylidene-2,3,4,4a,9,9a-hexahydro-1H-carbazol-4a-yl)ethyl]-3,4-dichlorobenzene-1-sulfonamide] as the compound, how does the GI50 at 24 h [3] read?
**A.** 31 µg/mL (≈ 58 µM)

**Q.** With `C=C1CCCC2Nc3c(F)cc(Br)cc3C12CCNS(=O)(=O)c1cc(Br)c(Br)s1` (centres unmarked) [Cpd 13p, 4,5-dibromo-N-[2-(6-bromo-8-fluoro-4-methylidene-2,3,4,4a,9,9a-hexahydro-1H-carbazol-4a-yl)ethyl]thiophene-2-sulfonamide] as the compound, how does the GI50 at 24 h [3] read?
**A.** 14.6 µg/mL (≈ 23.2 µM)

**Q.** Which GI50 at 24 h [3] does the source give for `C=C1CCCC2Nc3c(F)cc(Br)cc3C12CCNS(=O)(=O)c1ccc(I)cc1` (centres unmarked) [Cpd 13e, N-[2-(6-bromo-8-fluoro-4-methylidene-2,3,4,4a,9,9a-hexahydro-1H-carbazol-4a-yl)ethyl]-4-iodobenzene-1-sulfonamide] here?
**A.** 19.6 µg/mL (≈ 33.1 µM)

**Q.** Which GI50 at 24 h [3] does the source give for `C=C1CCCC2Nc3c(F)cc(Br)cc3C12CCNS(=O)(=O)c1ccc(Br)cc1C` (centres unmarked) [Cpd 13n, 4-bromo-N-[2-(6-bromo-8-fluoro-4-methylidene-2,3,4,4a,9,9a-hexahydro-1H-carbazol-4a-yl)ethyl]-2-methylbenzene-1-sulfonamide] here?
**A.** 13.5 µg/mL (≈ 24.2 µM)

**Q.** Which GI50 at 24 h [3] does the source give for `C=C1CCCC2Nc3c(F)cc(Br)cc3C12CCNS(=O)(=O)c1ccc(Br)c(F)c1` (centres unmarked) [Cpd 13k, 4-Bromo-N-[2-(6-bromo-8-fluoro-4-methylidene-2,3,4,4a,9,9a-hexahydro-1H-carbazol-4a-yl)ethyl]-3-fluorobenzene-1-sulfonamide] here?
**A.** 17.5 µg/mL (≈ 31.1 µM)

**Q.** Which GI50 at 24 h [3] does the source give for `C=C1CCCC2Nc3c(F)cc(Br)cc3C12CCNS(=O)(=O)c1ccc(NC(C)=O)cc1` (centres unmarked) [Cpd 13g, N-(4-{[2-(6-bromo-8-fluoro-4-methylidene-2,3,4,4a,9,9a-hexahydro-1H-carbazol-4a-yl)ethyl]sulfamoyl}phenyl)acetamide] here?
**A.** 32 µg/mL (≈ 61.3 µM)

**Q.** Which GI50 at 24 h [3] does the source give for `C=C1CCCC2Nc3c(Cl)cc(Cl)cc3C12CCNS(=O)(=O)c1ccc(Cl)cc1` (centres unmarked) [Cpd 6k, 4-Chloro-N-[2-(6,8-dichloro-4-methylidene-2,3,4,4a,9,9a-hexahydro-1H-carbazol-4a-yl)ethyl]benzene-1-sulfonamide] here?
**A.** 13.6 µg/mL (≈ 28.8 µM)

**Q.** With `C=C1CCCC2Nc3c(F)cc(Br)cc3C12CCNS(=O)(=O)c1ccc(C(F)(F)F)cc1` (centres unmarked) [Cpd 13i, N-[2-(6-bromo-8-fluoro-4-methylidene-2,3,4,4a,9,9a-hexahydro-1H-carbazol-4a-yl)ethyl]-4-(trifluoromethyl)benzene-1-sulfonamide] as the compound, how does the GI50 at 24 h [3] read?
**A.** 8.7 µg/mL (≈ 16.3 µM)

**Q.** Which GI50 at 24 h [3] does the source give for `C=C1CCCC2Nc3ccc(Br)cc3C12CCNS(=O)(=O)c1ccc(Br)cc1` (centres unmarked) [Cpd 12g, 4-Bromo-N-[2-(6-bromo-4-methylidene-2,3,4,4a,9,9a-hexahydro-1H-carbazol-4a-yl)ethyl]benzene-1-sulfonamide] here?
**A.** 40 µg/mL (≈ 76 µM)

**Q.** Which GI50 at 24 h [3] does the source give for `C=C1CCCC2Nc3c(F)cc(Br)cc3C12CCNS(=O)(=O)c1ccc(F)cc1` (centres unmarked) [Cpd 13c, N-[2-(6-bromo-8-fluoro-4-methylidene-2,3,4,4a,9,9a-hexahydro-1H-carbazol-4a-yl)ethyl]-4-fluorobenzene-1-sulfonamide] here?
**A.** 18.3 µg/mL (≈ 37.9 µM)
